Reference: ChEMBL document CHEMBL1121807, “Potential thyroliberin affinity labels. 1. Chloroacetyl-substituted phenylalanylpyrrolidines” (1981)

Legend:
Rattus norvegicus [1] = species on record: Rattus norvegicus; test: Agonist activity relative to TRH (Thyroliberin) was evaluated in rat; None at a dose up to 30 ug; type: functional, organism-based
Rattus norvegicus [2] = species on record: Rattus norvegicus; test: Agonist activity relative to TRH (Thyroliberin) was evaluated in rat; none at a dose up to 30 ug; type: functional, organism-based
Rattus norvegicus [3] = species on record: Rattus norvegicus; test: Agonist activity relative to TRH (Thyroliberin) was evaluated in rat; type: functional
Rattus norvegicus [4] = species on record: Rattus norvegicus; test: Agonist activity relative to TRH (Thyroliberin) was evaluated in rat at a dose of 0.6 ng; type: functional

## O=C(CCl)NC(Cc1ccccc1)C(=O)N1CCCC1 (configuration not stated)
Rattus norvegicus [1]
  Relative activity: None

## C[C@H](NC(=O)c1cccc(C(=O)CCl)c1)C(=O)N[C@@H](Cc1ccccc1)C(=O)N1CCCC1
Rattus norvegicus [2]
  Relative activity: None

## C[C@H](NC(=O)c1ccc(C(=O)CCl)cc1)C(=O)N[C@@H](Cc1ccccc1)C(=O)N1CCCC1
Rattus norvegicus [3]
  Relative activity: 0.005%

## NC(=O)[C@@H]1CCCN1C(=O)[C@H](Cc1c[nH]cn1)NC(=O)[C@@H]1CCC(=O)N1 [PROTIRELIN]
Rattus norvegicus [4]
  Relative activity: 100%

## O=C(CCl)c1cccc(C(=O)NC(Cc2ccccc2)C(=O)N2CCCC2)c1 (configuration not stated)
Rattus norvegicus [3]
  Relative activity: 0.0012%

## O=C(CCl)c1ccc(C(=O)NC(Cc2ccccc2)C(=O)N2CCCC2)cc1 (configuration not stated)
Rattus norvegicus [3]
  Relative activity: 0.0006%

## C[C@H](NC(=O)CCl)C(=O)N[C@@H](Cc1ccccc1)C(=O)N1CCCC1
Rattus norvegicus [1]
  Relative activity: None
